Literature values in article PMC11291853, “Haemodynamic, hormonal and renal actions of osteocrin in normal sheep” (Experimental Physiology, 2024).

What was measured:
[1] = sheep; at comparable circulating concentrations (∼30 pmol/L); ref Charles, Espiner, Richards et al., 1996; cited from earlier work
From the text: To our knowledge, the metabolism of the 5 kDa OSTN has not been studied previously in vivo. […] Consistent with this is the longer half‐l ...

[2] = biological target: NPR-C; conditions: purified ovine lung tissue membranes; ref Smith et al., 2000; read-out: K d, binding affinity to NPR-C; cited from earlier work
Procedure: Actions of OSTN on muscle cells (Subbotina et al., [2015]) and cartilage/bone (Moffatt et al., [2007]; Thomas et al., [2003]) have been studied, whereas few reports have examined the impact of the peptide on plasma concentrations of NPs and on cardiovascular and renal tissues. A crucial issue is the ability of OSTN, in tissues and in plasma, to impact NP concentrations in health or disease. In mice, constant infusion of the 10 kDa peptide [proOSTN (30–130)] at doses of 10 μg/kg/min (∼1000 pmol/kg/min) increased endogenous plasma ANP (by ∼15 pmol/L), similar to increments evoked by administrati ...

[3] = system: people; parameters: method as in Hirata et al., 1990; conditions: exogenous ANP infusions achieving plasma concentrations of ∼150 pmol/L, ref Hirata et al., 1990; cited from earlier work

ANP: atrial natriuretic peptide
Clearance rate (MCR) [1]: 5.7 L/min
Kd [2]: 0.008 to 0.016 nM
Increase in nephrogenous cGMP [3]: 10 fold
